Assay [1] deals with CD-1 mice. Nature of the assay: Formalin test in mice. Conditions: AM251 0.5 mg/kg i.p. or AM630 1 mg/kg i.p., 10 min before Δ^9-THCB 3 mg/kg i.p. It is filed as in vivo. As for the experimental part: Formalin test in mice. Male CD-1 mice 6-8 weeks (Envigo, Italy), were housed under controlled conditions (12 h light/12 h dark cycle; temperature 20-22 C; humidity 55-60%) with chow and tap water available ad libitum. All surgeries and experimental procedures were approved by the Animal Ethics Committee of University of Campania “L. Vanvitelli” (Naples). Animal care was in compliance with Italian (D.L. 116/92) and European Commission (O.J. of E.C. L358/1 18/12/86) regulations on the protection of laboratory animals. All efforts were made to minimize animal suffering and to reduce the number of animals used. All the experiments were performed in a randomized manner by the same operator blind to pharmacological treatments. Mice weighing 28-32 g were used after 1 week-acclimation period and received formalin (1.25% in saline, 30 μL) in the dorsal surface of one side of the hind-paw. Each mouse, randomly assigned to one of the experimental groups (n=5), was placed in a plexiglass cage and allowed to move freely for 15-20 min. A mirror was placed at a 45° angle under the cage to allow full view of the hind-paws. Lifting, favoring, licking, shaking and flinching of the injected paw were recorded as nocifensive behavior.^61 The total time of the nociceptive response was measured every 5 min for 60 minutes and expressed in min (mean±SEM). Mice received vehicle (0.5% DMSO in saline) or different doses of Δ^9-THCB (2, 3 and 5 mg/kg, i.p.) 20 min before formalin injection alone or in combination with AM251 (0.5 mg/kg, i.p.) or AM630 (1 mg/kg, i.p.). The antagonists were administered 10 min before drugs injection.
Statistics for in vivo experiments. Data are represented as means±standard error of the mean (S.E.M). Statistical analysis of the data was performed by analysis of variance two-way ANOVA followed by Bonferroni post hoc or Dunnett's multiple comparison test. All statistical analyses were performed by using GraphPAD software (San Diego, California). Differences were considered significant at p<0.05.

The target of assay [2] is T1, human CB1 receptor (Homo sapiens, UniProt P21554).
T1 construct: Eurofins Discovery (contract assay)
T1 sequence (P21554 whole entry): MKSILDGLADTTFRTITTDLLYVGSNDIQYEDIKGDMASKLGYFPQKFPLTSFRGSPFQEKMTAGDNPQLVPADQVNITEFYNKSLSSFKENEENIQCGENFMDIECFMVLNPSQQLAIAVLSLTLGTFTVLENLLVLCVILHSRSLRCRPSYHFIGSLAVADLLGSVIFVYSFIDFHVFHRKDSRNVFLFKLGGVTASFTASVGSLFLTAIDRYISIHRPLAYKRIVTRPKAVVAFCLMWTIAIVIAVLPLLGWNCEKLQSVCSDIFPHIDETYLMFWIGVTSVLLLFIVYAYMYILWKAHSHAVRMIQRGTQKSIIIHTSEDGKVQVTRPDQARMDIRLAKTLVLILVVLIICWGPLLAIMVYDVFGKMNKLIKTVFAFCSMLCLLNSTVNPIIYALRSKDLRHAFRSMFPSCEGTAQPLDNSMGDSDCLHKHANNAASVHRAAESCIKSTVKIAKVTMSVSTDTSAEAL
Conditions: literature values used for comparison; read-out: Ki against CB1 receptor reported in the literature; cited from earlier work.

The target in assay [3] is T2, human CB2 receptor (Homo sapiens, UniProt P34972).
T2 construct: Eurofins Discovery (contract assay)
T2 sequence (P34972 whole entry): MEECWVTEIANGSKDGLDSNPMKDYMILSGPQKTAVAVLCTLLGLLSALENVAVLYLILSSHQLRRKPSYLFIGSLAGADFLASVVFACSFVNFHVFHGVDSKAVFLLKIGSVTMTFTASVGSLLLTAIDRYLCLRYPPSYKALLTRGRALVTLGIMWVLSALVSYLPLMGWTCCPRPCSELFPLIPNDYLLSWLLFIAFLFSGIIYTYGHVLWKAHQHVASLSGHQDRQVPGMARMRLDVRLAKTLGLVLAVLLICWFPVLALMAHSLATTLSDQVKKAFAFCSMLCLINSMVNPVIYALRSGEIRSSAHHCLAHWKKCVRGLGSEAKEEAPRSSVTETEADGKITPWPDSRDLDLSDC
Conditions: cited from earlier work.

Molecules are shown by their SMILES.

By Ki is commonly meant the dissociation constant of the complex between target and ligand, obtained from inhibition or displacement.

On to `Cc1c(C(=O)NN2CCCCC2)nn(-c2ccc(Cl)cc2Cl)c1-c1ccc(I)cc1` [AM251], for which, in assay [1], the “effect of antagonist pre-treatment on Δ^9-THCB analgesia in formalin test” value is “prevented the analgesic effects induced by Δ^9-THCB”. As for `COc1ccc(C(=O)c2c(C)n(CCN3CCOCC3)c3cc(I)ccc23)cc1` [AM630], in assay [1], the “effect of antagonist pre-treatment on Δ^9-THCB analgesia in formalin test” value was “prevented the analgesic effects induced by Δ^9-THCB”. Consider `CC1=CC[C@@H]2[C@@H](C1)c1c(O)cc(C(C)(C)CCCCCCBr)cc1OC2(C)C` [AM11542], for which the Ki in assay [2] is 0.11 nM. In the case of `C=C(C)[C@@H]1CCC(C)=C[C@H]1c1c(O)cc(CCCCC)cc1O` [CBD, cannabidiol], the “affinity to CB2 receptor (in words, literature)” value in assay [3] is reported as “poor affinity”. Consider `CCCc1cc(O)c2c(c1)OC(C)(C)[C@@H]1CCC(C)=C[C@@H]21` [Δ^9-THCV, Δ^9-tetrahydrocannabivarin], for which, in assay [2], the inhibition constant (Ki) was 75.4 nM.

Values taken from patent US12606508B2, “Cannabis extracts and uses thereof” (priority 2020, dated 2026).
